Test results: ChEMBL document CHEMBL5360614, “Quinoline Thiourea-Based Zinc Ionophores with Antibacterial Activity” (J Med Chem, 2023)
≈ marks a conversion by molar mass, not a printed value. Calls of active or inactive are those of the source. The calls are words filed in the database; no cut-off is given here.

How the values were obtained:
Staphylococcus aureus [1] = experiment: Antibacterial activity against Staphylococcus aureus MTCC-96 assessed as reduction in bacterial growth incubated for 14 to 16 hrs in presence of 100 to 400 uM CuCl2 by microbroth dilution method; assay type: functional, organism-based; settings: time 14-16 hrs
Staphylococcus aureus [2] = experiment: Antibacterial activity against Staphylococcus aureus MTCC-96 assessed as reduction in bacterial growth incubated for 14 to 16 hrs in presence of 100 to 400 uM MnCl2 by microbroth dilution method; assay type: functional, organism-based; settings: time 14-16 hrs
A549 = experiment: Cytotoxicity against human A549 cells assessed as reduction in cell viability at 1 to 100 uM incubated for 44 hrs by MTT assay; assay type: toxicity, cell-based; settings: a549, 44 h, dose 1-100 µM
Staphylococcus aureus [3] = experiment: Antibacterial activity against Staphylococcus aureus MTCC-96 assessed as reduction in bacterial growth incubated for 14 to 16 hrs by microbroth dilution method; assay type: functional; settings: time 14-16 hrs
Staphylococcus aureus [4] = experiment: Antibacterial activity against Staphylococcus aureus MTCC-96 assessed as resistance development by measuring fold increase in MIC and measured after 30 days in presence of ZnCl2 by microbroth dilution method; assay type: functional, organism-based; settings: time 30.0 day
Staphylococcus aureus [5] = experiment: Antibacterial activity against Staphylococcus aureus MTCC-96 assessed as reduction in bacterial growth incubated for 14 to 16 hrs in presence of 100 to 400 uM CaCl2 by microbroth dilution method; assay type: functional, organism-based; settings: time 14-16 hrs
Staphylococcus aureus [6] = experiment: Disruption of membrane integrity in Staphylococcus aureus MTCC-96 assessed as increase in fluorescence intensity at 4 to 8 uM by PI staining based fluorescence analysis; assay type: functional, organism-based; settings: dose 4-8 µM
Lipid bilayer [7] = experiment: Induction of ionophore activity across EYPC:CHOL (8:2) large unilamellar vesicles assessed as transmembrane cation transport by measuring decrease in fluorescence intensity for HPTS dye preincubated for 3 mins followed by CuCl2 addition and mesured after 7.5 mins by HPTS dye based fluorescence spectrophotometric analysis; settings: filed as opener; time 10.5 min
Lipid bilayer [8] = experiment: Induction of ionophore activity across EYPC:CHOL (8:2) large unilamellar vesicles assessed as transmembrane anion transport by measuring decrease in fluorescence intensity for HPTS dye preincubated for 3 mins followed by Zn(NO3)2 addition and mesured after 7.5 mins by HPTS dye based fluorescence spectrophotometric analysis; settings: filed as opener; time 10.5 min
Lipid bilayer [9] = experiment: Induction of ionophore activity across EYPC:CHOL (8:2) large unilamellar vesicles assessed as transmembrane cation transport by measuring decrease in fluorescence intensity for HPTS dye preincubated for 3 mins followed by MnCl2 addition and mesured after 7.5 mins by HPTS dye based fluorescence spectrophotometric analysis; settings: time 10.5 min
Erythrocyte = experiment: Hemolytic activity in human Red blood cells assessed as hemolysis rate at 1.6 to 50 uM incubated for 1 to 24 hrs in presence of ZnCl2 by absorbance based analysis; assay type: toxicity, cell-based; settings: dose lower 1.6 µM, time lower 1 hrs, dose upper 50 µM, time upper 24 hrs
Lipid bilayer [10] = experiment: Induction of ionophore activity across EYPC:CHOL (8:2) large unilamellar vesicles assessed as transmembrane anion transport by measuring decrease in fluorescence intensity for HPTS dye preincubated for 3 mins followed by ZnSO4 addition and mesured after 7.5 mins by HPTS dye based fluorescence spectrophotometric analysis; settings: filed as opener; time 10.5 min
Lipid bilayer [11] = experiment: Induction of ionophore activity across EYPC:CHOL (8:2) large unilamellar vesicles assessed as transmembrane cation transport by measuring decrease in fluorescence intensity for HPTS dye preincubated for 3 mins followed by CsCl addition and mesured after 7.5 mins by HPTS dye based fluorescence spectrophotometric analysis; settings: time 10.5 min
Staphylococcus aureus [12] = experiment: Antibacterial activity against Staphylococcus aureus MTCC-96 assessed as reduction in bacterial growth incubated for 14 to 16 hrs in presence of 100 to 400 uM CsCl by microbroth dilution method; assay type: functional, organism-based; settings: time 14-16 hrs
Staphylococcus aureus [13] = experiment: Antibacterial activity against Staphylococcus aureus MTCC-96 assessed as resistance development by measuring fold increase in MIC and measured after 30 days by microbroth dilution method; assay type: functional; settings: time 30 day
Staphylococcus aureus [14] = experiment: Antibacterial activity against Staphylococcus aureus MTCC-96 assessed as reduction in bacterial growth incubated for 14 to 16 hrs in presence of 100 to 400 uM MgCl2 by microbroth dilution method; assay type: functional, organism-based; settings: time 14-16 hrs
Lipid bilayer [15] = experiment: Induction of ionophore activity across EYPC:CHOL (8:2) large unilamellar vesicles assessed as transmembrane cation transport by measuring decrease in fluorescence intensity for HPTS dye preincubated for 3 mins followed by MgCl2 addition and mesured after 7.5 mins by HPTS dye based fluorescence spectrophotometric analysis; settings: time 10.5 min
Staphylococcus aureus [16] = experiment: Disruption of membrane integrity in Staphylococcus aureus MTCC-96 assessed as change in cocci shape in presence of Zn2+ ion by FE-SEM analysis; assay type: functional, organism-based
Lipid bilayer [17] = experiment: Induction of ionophore activity across EYPC:CHOL (8:2) large unilamellar vesicles assessed as transmembrane anion transport by measuring decrease in fluorescence intensity for HPTS dye preincubated for 3 mins followed by ZnBr2 addition and mesured after 7.5 mins by HPTS dye based fluorescence spectrophotometric analysis; settings: filed as opener; time 10.5 min
Lipid bilayer [18] = experiment: Induction of ionophore activity across EYPC:CHOL (8:2) large unilamellar vesicles assessed as transmembrane cation transport by measuring decrease in fluorescence intensity for HPTS dye preincubated for 3 mins followed by NaCl addition and mesured after 7.5 mins by HPTS dye based fluorescence spectrophotometric analysis; settings: time 10.5 min
Lipid bilayer [19] = experiment: Induction of ionophore activity across EYPC:CHOL (8:2) large unilamellar vesicles assessed as transmembrane Zn2+ ion transport by measuring decrease in fluorescence intensity for HPTS dye at 10 uM preincubated for 3 mins followed by ZnCl2 addition and mesured after 7.5 mins by HPTS dye based fluorescence spectrophotometric analysis; settings: filed as opener, time 10.5 min
MCF-10A = experiment: Cytotoxicity against human MCF-10A cells assessed as reduction in cell viability at 1 to 100 uM incubated for 44 hrs by MTT assay; assay type: toxicity, cell-based; settings: dose 1-100 µM
MDA-MB-231 = experiment: Cytotoxicity against human MDA-MB-231 cells assessed as reduction in cell viability at 1 to 100 uM incubated for 44 hrs by MTT assay; assay type: toxicity, cell-based; settings: mda-mb-231, 44 h, dose 1-100 µM
Staphylococcus aureus [20] = experiment: Antibacterial activity against Staphylococcus aureus MTCC-96 assessed as reduction in bacterial growth incubated for 14 to 16 hrs in presence of EGTA by microbroth dilution method; assay type: functional; settings: time 14-16 hrs
Staphylococcus aureus [21] = experiment: Bactericidal activity against Staphylococcus aureus MTCC-96 assessed as reduction in bacterial colony formation at 2 times MIC incubated upto 8 hrs in presence of ZnCl2 by agar-plate method; assay type: functional, organism-based
Staphylococcus aureus [22] = experiment: Antibacterial activity against Staphylococcus aureus MTCC-96 assessed as reduction in bacterial growth incubated for 14 to 16 hrs in presence of 400 uM ZnCl2 by microbroth dilution method; assay type: functional; settings: time 14-16 hrs
Staphylococcus aureus [23] = experiment: Antibacterial activity against Staphylococcus aureus MTCC-96 assessed as fold reduction in bacterial growth incubated for 14 to 16 hrs in presence of 400 uM ZnCl2 by microbroth dilution method; assay type: functional; settings: time 14-16 hrs
Lipid bilayer [24] = experiment: Induction of ionophore activity across EYPC:CHOL (8:2) large unilamellar vesicles assessed as transmembrane cation transport by measuring decrease in fluorescence intensity for HPTS dye preincubated for 3 mins followed by KCl addition and mesured after 7.5 mins by HPTS dye based fluorescence spectrophotometric analysis; settings: time 10.5 min
Lipid bilayer [25] = experiment: Induction of ionophore activity across EYPC:CHOL (8:2) large unilamellar vesicles assessed as transmembrane cation transport by measuring decrease in fluorescence intensity for HPTS dye preincubated for 3 mins followed by RbCl addition and mesured after 7.5 mins by HPTS dye based fluorescence spectrophotometric analysis; settings: time 10.5 min

| Compound | Activity (Staphylococcus aureus [1]) | Activity (Staphylococcus aureus [2]) | Activity (A549) | MIC (Staphylococcus aureus [3]) | Activity (Staphylococcus aureus [4]) | Activity (Staphylococcus aureus [5]) | Activity (Staphylococcus aureus [6]) | Activity (Lipid bilayer [7]) | Activity (Lipid bilayer [8]) | Activity (Lipid bilayer [9]) | Activity (Erythrocyte) | Activity (Lipid bilayer [10]) | Activity (Lipid bilayer [11]) | Activity (Staphylococcus aureus [12]) | fold change (FC) (Staphylococcus aureus [13]) | Activity (Staphylococcus aureus [14]) | Activity (Lipid bilayer [15]) | Activity (Staphylococcus aureus [16]) | Activity (Lipid bilayer [17]) | Activity (Lipid bilayer [18]) | further results |
| --- | --- | --- | --- | --- | --- | --- | --- | --- | --- | --- | --- | --- | --- | --- | --- | --- | --- | --- | --- | --- | --- |
| FC(F)(F)c1cc(NC(=S)Nc2cccc3cccnc23)cc(C(F)(F)F)c1 | inactive | inactive | Non-Toxic | 3.13 µM (≈ 1.3 µg/mL) | Active | inactive | inactive | Active | Active | inactive | Non-Toxic | Active | inactive | inactive | 16 | inactive | inactive | inactive | Active | inactive | Activity (Lipid bilayer [19]): Active; Activity (MCF-10A): Non-Toxic; Activity (MDA-MB-231): Non-Toxic; MIC (Staphylococcus aureus [20]): 6.25 µM; Activity (Staphylococcus aureus [21]): Active; MIC (Staphylococcus aureus [22]): 0.47 µM; fold change (FC) (Staphylococcus aureus [23]): 6.65; Activity (Lipid bilayer [24]): inactive; Activity (Lipid bilayer [25]): inactive |
| FC(F)(F)c1cc(NC(=S)Nc2cccc3ccc(-n4cnc5ccccc54)nc23)cc(C(F)(F)F)c1 | inactive | inactive | Non-Toxic | 3.13 µM (≈ 1.66 µg/mL) | inactive | inactive | inactive | Active | Active | inactive | Non-Toxic | Active | inactive | inactive | 14 | inactive | inactive | inactive | Active | inactive | Activity (Lipid bilayer [19]): Active; Activity (MCF-10A): Non-Toxic; Activity (MDA-MB-231): Non-Toxic; MIC (Staphylococcus aureus [20]): 6.25 µM; Activity (Staphylococcus aureus [21]): Active; MIC (Staphylococcus aureus [22]): 0.47 µM; fold change (FC) (Staphylococcus aureus [23]): 6.65; Activity (Lipid bilayer [24]): inactive; Activity (Lipid bilayer [25]): inactive |
